Experimental data taken from patent publication US20030044356A1, “Composition for nasal solution sprays having effective component of 1,2,3,9-tetrahydro-9-methyl-3-[(2-methyl-1H-imidazol-1-yl)methyl]-4H-carbazol-4-one)” (priority 2001, published 2003).
Like-named read-outs stand apart in the source and are kept apart here.

What was measured:
[1] = Comparison of bioavailability after nasal, intravenous and oral administration; assay type: in vivo, Sprague-Dawley male rats; conditions: rats, 2 mg/kg; for Cmax / Tmax / AUC(0-t): male, Sprague-Dawley, rat, in vivo; for AUC(0-t): read-out: AUC0-2hr
Protocol: Twenty four (24) white rats (body weight 250-300 g, Sprague-Dawley male rats) were classified into 3 groups, namely 6, 11 and 7 rats. After nasal, intravenous and oral administration to each group of rats, the bioavailability according to the different routes of administration was compared.
Ondansetron hydrochloride was dissolved in the composition obtained in Formulation Example for nasal administration, in 0.9% saline for intravenous administration, and in purified water for oral administration as vehicles, respectively. Each 2 mg/kg of the solutions was administered thereby. The blood samples were collected at the predetermined time intervals to analyze the concentration of ondansetron hydrochloride in the plasma. The bioavailibity parameters were calculated from the assay results.

[2] = assay type: in vitro ADME; conditions: female, New Zealand White, rabbit
Source text: (§1) The results are shown in below Table 2.

[3] = Test for intranasal stability of active ingredient in nasal mucosa extract; conditions: 37° C.; for Residual Concentration: 200 μg/mL added
Protocol: The fresh nasal mucosa excised from a rabbit (body weight 3.0 kg, New Zealand White female rabbit) was mounted to the Valia-Chien permeation system maintained at a constant temperature of 37° C. Each of the donor and receptor half-cells was filled with each 3.5 mL of saline, maintained at the constant temperature for 4 hours while stirring with a magnetic star-head bar, and then both extracts from the half-cells were combined and used as nasal mucosa extracts.
Ondansetron hydrochloride (200 μg/mL) was added to the obtained nasal mucosa extract, and then maintained at the temperature of 37° C. for 4 hours while gently shaking in order to confirm the physiochemical or enzymatic stability of ondansetron hydrochloride in a nasal cavity.

[4] = Permeation through excised rectal mucosa; assay type: in vitro ADME, rabbit
Source text: as §1

[5] = Permeation through excised colonic mucosa; assay type: in vitro ADME, rabbit
Source text: as §1

[6] = Permeation through excised duodenal mucosa; assay type: in vitro ADME, rabbit
Source text: as §1

[7] = inhaled or intranasal, nasal, in composition of Formulation Example

SMILES: Cc1nccn1CC1CCc2c(c3ccccc3n2C)C1=O.Cl.O.O (stereo not shown) [ondansetron hydrochloride, 1,2,3,9-tetrahydro-9-methyl-3-[(2-methyl-1H-imidazol-1-yl)methyl]-4H-carbazol-4-one hydrochloride dihydrate]
- Cmax [1, 7]: 49.4 ± 18.7 ng/mL
- Tmax [1, 7]: 9.4 min
- AUC(0-t) [1, 7]: 53.2 ± 9.5 ng·h/mL
- AUC(0-t) ([1]; IV injection, in 0.9% saline): 51.1 ± 7.4 ng·h/mL
- Cmax ([1]; oral, in purified water): 29.7 ± 10.6 ng/mL
- Tmax ([1]; oral, in purified water): 11.8 min
- AUC(0-t) ([1]; oral, in purified water): 24.9 ± 12.6 ng·h/mL
- AUC0-2 hr in nasal administration higher than that in oral administration [1]: 2.1 times
- Cmax in oral administration lower than that in nasal administration [1]: 1.7 times
- Cumulative Amounts ([2]; 0.333 hr): 68.2 ± 4.7 μg/cm^2
- permeation rate through nasal mucosa relative to colonic mucosa ([2]; 30 min): 7.5 times
- permeation rate through nasal mucosa relative to duodenal mucosa ([2]; 30 min): 7.2 times
- permeation rate through nasal mucosa relative to rectal mucosa ([2]; 30 min): 15.8 times
- Cumulative Amounts ([2]; 0.5 hr): 106.8 ± 14.9 μg/cm^2
- Cumulative Amounts ([2]; 1 hr): 180.5 ± 12.4 μg/cm^2
- Cumulative Amounts ([2]; 1.5 hr): 261.5 ± 15.1 μg/cm^2
- Cumulative Amounts ([2]; 2 hr): 289.3 ± 23.5 μg/cm^2
- Cumulative Amounts ([2]; 3 hr): 414.6 ± 22.6 μg/cm^2
- Cumulative Amounts ([2]; 4 hr): 559.4 ± 28.2 μg/cm^2
- Residual Concentration ([3]; 0 hr): 198.6 ± 1.3 µg/mL
- Residual Concentration ([3]; 1 hr): 199.0 ± 5.2 µg/mL
- Residual Concentration ([3]; 2 hr): 203.5 ± 3.0 µg/mL
- Residual Concentration ([3]; 3 hr): 196.9 ± 0.6 µg/mL
- Residual Concentration ([3]; 4 hr): 197.9 ± 9.6 µg/mL
- degradation in nasal mucosa extract ([3]; for 4 hours): not nearly degraded
- Cumulative Amounts ([4]; 0.5 hr): 6.7 ± 0.1 μg/cm^2
- Cumulative Amounts ([4]; 1.0 hr): 9.6 ± 0.9 μg/cm^2
- Cumulative Amounts ([4]; 2.0 hr): 19.3 ± 5.8 μg/cm^2
- Cumulative Amounts ([4]; 4.0 hr): 54.1 ± 6.7 μg/cm^2
- Cumulative Amounts ([4]; 6.0 hr): 164.2 ± 9.2 μg/cm^2
- Cumulative Amounts ([5]; 0.5 hr): 14.3 ± 2.2 μg/cm^2
- Cumulative Amounts ([5]; 1.0 hr): 36.5 ± 7.8 μg/cm^2
- Cumulative Amounts ([5]; 2.0 hr): 112.1 ± 14.6 μg/cm^2
- Cumulative Amounts ([5]; 4.0 hr): 294.8 ± 14.7 μg/cm^2
- Cumulative Amounts ([5]; 6.0 hr): 438.9 ± 27.2 μg/cm^2
- Cumulative Amounts ([6]; 0.5 hr): 14.8 ± 3.5 μg/cm^2
- Cumulative Amounts ([6]; 1.0 hr): 35.4 ± 8.2 μg/cm^2
- Cumulative Amounts ([6]; 2.0 hr): 94.6 ± 23.9 μg/cm^2
- Cumulative Amounts ([6]; 4.0 hr): 280.1 ± 43.2 μg/cm^2
- Cumulative Amounts ([6]; 6.0 hr): 453.1 ± 36.3 μg/cm^2
